Measurements published in paper PMC6804243, “Small-Molecule Inhibition of UBE2T/FANCL-Mediated Ubiquitylation in the Fanconi Anemia Pathway” (ACS Chemical Biology, 2019).

Tested on: pS345 CHK1, γH2AX, pS824 KAP1, PARP1
Assay: Immunoblot of DNA damage biomarkers (pS345 CHK1, γH2AX, pS824 KAP1, PARP1 cleavage) in U2OS cells
Assay type: cell-based
Conditions: 8 h, CU1 200 μM or CU2 500 μM; for levels of pS824 KAP1 / levels of pS345 CHK1: HU 2.5 mM; for levels of pS345 CHK1: relative to DMSO control; for levels of γH2AX (immunoblot): in combination with HU 2.5 mM, relative to HU plus DMSO
Experimental: As DNA damage induced by HU is cell-cycle-dependent, it was necessary to establish whether CU1 and CU2 might simply prevent cells from entering the S-phase, which would also manifest itself as a reduction in mUb-FANCD2. This was determined by analysis of several biomarkers linked to DNA damage in cycling cells. Activated CHK1 (pS345 CHK1) phosphorylates CDC25A, inducing the transient arrest of cells in the S-phase, or in G2 before the onset of mitosis.[18] […] These observations were also confirmed by cell cycle analysis.
Following the generation of DNA DSBs, ATM, ATR, and/or DNA-PKcs mediated phosphorylation of histone H2AX generates the phosphorylated species, γH2AX.[19] […] Following HU treatment, DSBs are formed if stalled replication forks are not stabilized and subsequently collapse. Therefore, we concluded that CU1 and CU2 appeared to act by impairing the ability of cells to stabilize and repair stalled replication forks. This is consistent with CU1 and CU2 inhibiting the formation of mUb-FANCD2, which would otherwise play a role in stabilizing stalled replication forks, thus preventing their collapse and the formation of DSBs.
In response to DSB formation, the transcriptional repressor and RING finger protein, KAP1, is released from chromatin, following its ATM-mediated phosphorylation on Ser824.[20] […] An increase in the number of DSBs could also have been caused by apoptosis. In cells undergoing apoptosis, PARP1 is cleaved from a full-length 116 kDa protein into 89 and 24 kDa polypeptides by caspase-3.[21]
Reaction mixtures were incubated for the indicated time at 37 °C and stopped by the addition of 2X reducing SDS -PAGE sample buffer, separated on NuPAGE Novex 4 –12% Bis/Tris gradient gels (Invitrogen) and visualized by Western blotting using the indicated antibodies (Table S3).
Cell culture. U2OS cells were cultured at 37 °C in a humidified atmosphere and 5% (v/v) CO2 in Dulbecco's Modified Eagle Medium (DMEM; Sigma-Aldrich) supplemented with 10% (v/v) fetal bovine serum (FBS), 100 units/ml of penicillin, […] of streptomycin and 292 μg/mL L-glutamine.
Cell extract preparation and immunoblotting. U2OS cells were lysed in buffer containing 50 mM Tris-HCl pH 7.5, 2% SDS, 10 mM NEM, cocktail protease inhibitor (Roche) and phosphatase inhibitor cocktail followed by sonication 100 µg of extracts were boiled for 5 mins at 95 °C in 5X loading buffer and loaded onto NuPAGE Novex 4–12% Bis/Tris gradient gels
(Invitrogen), or NuPAGE Novex 3-8% Tris/Acetate gradient gels (Invitrogen) for detection of mUb-FANCD2. After separation the gels were transferred to PVDF and the membranes were blocked with Tris-buffered saline containing 0.1% (v/v) Tween-20 (TBST) and 5% (v/v) bovine serum albumin (BSA) and incubated with the indicated primary and secondary antibodies. mUb-FANCD2 intensity was quantified using Image Studio (LI-COR).
IncuCyte cell proliferation assays. 2000 U2OS cells were seeded per well in 96-well plates and treated with compounds 24 hours afterwards. After 1 hour of compound treatment, 15 µM carboplatin (Sigma-Aldrich) was added and the cells were cultured in an incubator with an IncuCyte microscopy -platform (Essen BioScience). Phase -contrast images were acquired every 6 hours for 8 days until DMSO-carboplatin treated cells reached >80% confluence. Cell proliferation was monitored as the occupied area (% confluence) of cell images over time and calculated as percentage confluence over time. Cell confluency percentages were calculated using the integrated Cell Player software and results were analysed with Prism 6 (GraphPad Software).

| Structure (SMILES) | levels of pS824 KAP1 | levels of pS345 CHK1 | levels of γH2AX (immunoblot) |
| --- | --- | --- | --- |
| NCCN1C(=O)CC[C@H]2CN(Cc3cccc(-c4ccco4)c3)CC[C@H]21 [CU1] | increased levels of pS824 KAP1 | Comparable levels of pS345 CHK1 | somewhat increased the levels of γH2AX |
| CCN1CCN(c2cc(C)nc3nc(CN4CCCCC4C)nn23)CC1 (stereo not drawn) [CU2] | increased levels of pS824 KAP1 | Comparable levels of pS345 CHK1 | somewhat increased the levels of γH2AX |
